US4398937A, “Selective algaecides for control of cyanochloronta” (The University of Southern Mississippi, priority 1981, dated 1983)
Like-named read-outs stand apart in the source and are kept apart here.

What was measured:
Assay type in all cases: cell-based
Anabaena sp. = experiment: Test tube culture inhibition of Anabaena sp., algal units/ml; conditions: for inhibition of growth at 10 ppm: read-out: reduction of algal units/ml, % of the control
Experimental: (§1) The algae used in this particular study were Chlamydomonas sp., Chlorella vulgaris, Anabaena sp., and Anabaena flos-aquae. Cultures of these algae were obtained, subcultured, and aqueous stocks of algae in 400 ml BBM were prepared and were used in log phase growth to innoculate test cultures.
(§2) The fatty acids which were tested as algal inhibitors were 9, 10-dihydroxystearic acid, linoleic acid, dodecanoic acid, and ricinoleic acid.
(§3) The test procedure involved placing 15 ml of BBM into 25 ml test tubes and innoculating them with 0.2 ml of algal stock solution. Twenty test tubes were innoculated with each algae. Four of these cultures were used with each concentration of each of the fatty acids. Four tubes from each set served as controls. Four concentrations of the fatty acids were used for each alga. The concentrations studied were 0.5 PPM, 1.0 PPM, 5.0 PPM, and 10.0 PPM.
(§4) Algal cultures were incubated under constant light of about 200 foot-candles and at a temperature of 68° F. Bold's Basal Medium (BBM), a modification of Bristol's solution was the medium in which all the cultures were grown. Bold's Basal Medium was prepared as follows:
(§5) Concentrations of fatty acids and the amount of stock solution used to prepare them were as follows:
(§6) Each test tube contained 15 ml sterile BBM. To this was added an aliquot of 0.2 of algal stock solution. Then the appropriate aliquots of warm acid stock solution were added to the appropriate number of culture tubes. These cultures were then incubated 5 days and at that point were counted. The same cultures were also counted after a 12 day growth period.
(§7) Stock solutions of the fatty acids to be tested as algal inhibitors were made from a stock solution of 5% sodium bicarbonate in glass-distilled water. The 5% sodium bicarbonate stock solution was made by dissolving 150 grams of sodium bicarbonate in 3000 ml of glass-distilled water. To insure complete dissolution, the solution was heated and stirred on a magnetic stirrer hot plate. The warm solution was used in preparing the fatty acid stock solutions.
(§8) Quanitative phytoplankton values were determined using the random field method. Filaments, colonies, and aggregations of cells were recorded as algal units. Each unit consisted of approximately 6 cells. Unicellular algae were counted as separate units. Algal counts were made from each of three duplicate cultures. One ml of the algal sample was placed in a Sedgwick-Rafter counting chamber, which is 50 mm long by 20 mm, wide by 1 mm deep. A Wild Heerbrugg, compound microscope with a Whipple grid eyepiece was used to determine quantitative algae values.
(§9) One ml of the algal solution was placed in the counting chamber, and two drops of methyl cellulose were added to minimize the movement of Chlamydomonas sp. Ten random fields were counted and all organisms within the Whipple grid field were enumerated.
(§10) The following formula used to calculate the numbers per milliliter from the field counts: [formula] where: C=number of organisms counted,
(§11) The area of the Whipple grid used was 0.46 mm^2, and the depth of a field was 1 mm. Results of the counts were reported as algal units/ml.

Anabaena flos-aquae = experiment: Test tube culture inhibition of Anabaena flos-aquae, algal units/ml; conditions: for inhibition of growth at 10 ppm: Dolichospermum flos-aquae, 120 h, read-out: reduction of algal units/ml of the control
Experimental: as §1, §2, §3, §4, §5, §6, §7, §8, §9, §10, §11

Chlamydomonas sp. = experiment: Test tube culture inhibition of Chlamydomonas sp., algal units/ml; conditions: for reduction of number of algal units/ml vs control / inhibition of growth at 10 ppm: 10 PPM; for inhibition of growth at 10 ppm: Chlamydomonas, 120 h, read-out: reduction of number of algal units/ml, % of the control
Experimental: as §1, §2, §3, §4, §5, §6, §7, §8, §9, §10, §11

Chlorella vulgaris = experiment: Test tube culture inhibition of Chlorella vulgaris, algal units/ml
Experimental: as §1, §2, §3, §4, §5, §6, §7, §8, §9, §10, §11

With `CCCCCCCCC(O)C(O)CCCCCCCC(=O)O` (centres unmarked) [9,10-Dihydroxystearic Acid, 9,10-dihydroxystearic acid] the Algal units/ml (Anabaena sp.; 5 days, 0.5 PPM) was 34130 units/ml, the Algal units/ml (Anabaena sp.; 5 days, 1.0 PPM) was 38043 units/ml and the Algal units/ml (Anabaena sp.; 5 days, 5.0 PPM) was 30217 units/ml. For the same compound, the Algal units/ml (Anabaena sp.; 5 days, 10.0 PPM) was 23261 units/ml, the “inhibition” value (Anabaena sp.; 5 days, 10.0 PPM) was “effective as a inhibitor” and the inhibition of growth at 10 ppm (Anabaena sp.; 288 h, 12 days, 10 PPM) was 16.6%. The Algal units/ml (Anabaena sp.; 12 days, 0.5 PPM) was 158043 units/ml, the Algal units/ml (Anabaena sp.; 12 days, 1.0 PPM) was 166739 units/ml and the Algal units/ml (Anabaena sp.; 12 days, 5.0 PPM) was 106957 units/ml. For the same compound, the Algal units/ml (Anabaena sp.; 12 days, 10.0 PPM) was 98473 units/ml, the Algal units/ml (Anabaena flos-aquae; 5 days, 0.5 PPM) was 4348 units/ml and the Algal units/ml (Anabaena flos-aquae; 5 days, 1.0 PPM) was 4348 units/ml. The “effect on algal growth” value (Anabaena flos-aquae; 5 days, 1.0 PPM and less) was “stimulated”, the Algal units/ml (Anabaena flos-aquae; 5 days, 5.0 PPM) was 2174 units/ml and the Algal units/ml (Anabaena flos-aquae; 5 days, 10.0 PPM) was 217 units/ml. For the same compound, the Algal units/ml (Anabaena flos-aquae; 12 days, 0.5 PPM) was 18478 units/ml, the Algal units/ml (Anabaena flos-aquae; 12 days, 1.0 PPM) was 13478 units/ml and the Algal units/ml (Anabaena flos-aquae; 12 days, 5.0 PPM) was 9130 units/ml. The Algal units/ml (Anabaena flos-aquae; 12 days, 10.0 PPM) was 3261 units/ml, the “effect on algal growth” value (Anabaena flos-aquae; 12 days, all concentrations) was “inhibitory effect” and the inhibition of growth at 10 ppm (Anabaena flos-aquae; 5 days) was 90.9%. The Algal units/ml (Chlamydomonas sp.; 5 days, 0.5 PPM) was 10217 units/ml, the Algal units/ml (Chlamydomonas sp.; 5 days, 1.0 PPM) was 10436 units/ml and the Algal units/ml (Chlamydomonas sp.; 5 days, 5.0 PPM) was 11304 units/ml. The “reduction of number of algal units/ml vs control” value (Chlamydomonas sp.; 5 days) was 5,000 algal units/ml, the Algal units/ml (Chlamydomonas sp.; 5 days, 10.0 PPM) was 6522 units/ml and the Algal units/ml (Chlamydomonas sp.; 12 days, 0.5 PPM) was 47826 units/ml. The Algal units/ml (Chlamydomonas sp.; 12 days, 1.0 PPM) was 46739 units/ml, the Algal units/ml (Chlamydomonas sp.; 12 days, 5.0 PPM) was 50000 units/ml and the Algal units/ml (Chlamydomonas sp.; 12 days, 10.0 PPM) was 53478 units/ml. For the same compound, the inhibition of growth at 10 ppm (Chlamydomonas sp.; 5 days) was 43.4%.

In the case of `CCCCCCCCCCCC(=O)O` [Dodecanoic Acid, dodecanoic acid], the inhibition of growth at 10 ppm (Anabaena sp.; 120 h) is reported as 22.7%, the Algal units/ml (Anabaena sp.; 5 days, 0.5 PPM) is reported as 40435 units/ml and the Algal units/ml (Anabaena sp.; 5 days, 1.0 PPM) is reported as 32609 units/ml. It also gave an Algal units/ml (Anabaena sp.; 5 days, 5.0 PPM) of 28261 units/ml, an Algal units/ml (Anabaena sp.; 5 days, 10.0 PPM) of 28696 units/ml and an inhibition of growth at 10 ppm (Anabaena sp.; 288 h) of 22.7%. The Algal units/ml (Anabaena sp.; 12 days, 0.5 PPM) was 139348 units/ml, the Algal units/ml (Anabaena sp.; 12 days, 1.0 PPM) was 135217 units/ml and the Algal units/ml (Anabaena sp.; 12 days, 5.0 PPM) was 92826 units/ml. For the same compound, the Algal units/ml (Anabaena sp.; 12 days, 10.0 PPM) was 91204 units/ml, the Algal units/ml (Chlorella vulgaris; 5 days, 0.5 PPM) was 8913 units/ml and the Algal units/ml (Chlorella vulgaris; 5 days, 1.0 PPM) was 11304 units/ml. For the same compound, the Algal units/ml (Chlorella vulgaris; 5 days, 5.0 PPM) was 11304 units/ml, the Algal units/ml (Chlorella vulgaris; 5 days, 10.0 PPM) was 10435 units/ml and the Algal units/ml (Chlorella vulgaris; 12 days, 0.5 PPM) was 217391 units/ml. For the same compound, the Algal units/ml (Chlorella vulgaris; 12 days, 1.0 PPM) was 217391 units/ml, the Algal units/ml (Chlorella vulgaris; 12 days, 5.0 PPM) was 217391 units/ml and the Algal units/ml (Chlorella vulgaris; 12 days, 10.0 PPM) was 217391 units/ml. The “effect on algal growth” value (Anabaena flos-aquae; 5 and 12 days, all concentrations) was “some inhibitory effects”, the Algal units/ml (Anabaena flos-aquae; 5 days, 0.5 PPM) was 1087 units/ml and the Algal units/ml (Anabaena flos-aquae; 5 days, 1.0 PPM) was 2174 units/ml. It also gave an Algal units/ml (Anabaena flos-aquae; 5 days, 5.0 PPM) of 2714 units/ml, an Algal units/ml (Anabaena flos-aquae; 5 days, 10.0 PPM) of 2174 units/ml and an Algal units/ml (Anabaena flos-aquae; 12 days, 0.5 PPM) of 20435 units/ml. It also gave an Algal units/ml (Anabaena flos-aquae; 12 days, 1.0 PPM) of 7609 units/ml, an Algal units/ml (Anabaena flos-aquae; 12 days, 5.0 PPM) of 6739 units/ml and an Algal units/ml (Anabaena flos-aquae; 12 days, 10.0 PPM) of 6522 units/ml. It also gave an Algal units/ml (Chlamydomonas sp.; 5 days, 0.5 PPM) of 10652 units/ml, an Algal units/ml (Chlamydomonas sp.; 5 days, 1.0 PPM) of 10435 units/ml and an Algal units/ml (Chlamydomonas sp.; 5 days, 5.0 PPM) of 12609 units/ml. It also gave an Algal units/ml (Chlamydomonas sp.; 5 days, 10.0 PPM) of 11957 units/ml, an Algal units/ml (Chlamydomonas sp.; 12 days, 0.5 PPM) of 47174 units/ml and an Algal units/ml (Chlamydomonas sp.; 12 days, 1.0 PPM) of 48696 units/ml. It also gave an Algal units/ml (Chlamydomonas sp.; 12 days, 5.0 PPM) of 46304 units/ml and an Algal units/ml (Chlamydomonas sp.; 12 days, 10.0 PPM) of 50217 units/ml.

Work on `CCCCC/C=C\C/C=C\CCCCCCCC(=O)O` [Linoleic Acid, linoleic acid] yielded an inhibition of growth at 10 ppm (Anabaena sp.; 120 h, 5 days, 10.0 PPM) of 38.1%, an Algal units/ml (Anabaena sp.; 5 days, 0.5 PPM) of 45217 units/ml and an Algal units/ml (Anabaena sp.; 5 days, 1.0 PPM) of 46957 units/ml. For the same compound, the Algal units/ml (Anabaena sp.; 5 days, 5.0 PPM) was 32609 units/ml, the Algal units/ml (Anabaena sp.; 5 days, 10.0 PPM) was 19783 units/ml and the “reduction in algal units/ml vs control” value (Anabaena sp.; 5 days, 10.0 PPM) was 12,174 algal units/ml. For the same compound, the inhibition of growth at 10 ppm (Anabaena sp.; 288 h, 12 days, 10 PPM) was 19.5%, the Algal units/ml (Anabaena sp.; 12 days, 0.5 PPM) was 114565 units/ml and the Algal units/ml (Anabaena sp.; 12 days, 1.0 PPM) was 135217 units/ml. It also gave an Algal units/ml (Anabaena sp.; 12 days, 5.0 PPM) of 98261 units/ml, an Algal units/ml (Anabaena sp.; 12 days, 10.0 PPM) of 95000 units/ml and an Algal units/ml (Chlorella vulgaris; 5 days, 0.5 PPM) of 8697 units/ml. The Algal units/ml (Chlorella vulgaris; 5 days, 1.0 PPM) was 12174 units/ml, the Algal units/ml (Chlorella vulgaris; 5 days, 5.0 PPM) was 10870 units/ml and the Algal units/ml (Chlorella vulgaris; 5 days, 10.0 PPM) was 11304 units/ml. The Algal units/ml (Chlorella vulgaris; 12 days, 0.5 PPM) was 195652 units/ml, the Algal units/ml (Chlorella vulgaris; 12 days, 1.0 PPM) was 239130 units/ml and the Algal units/ml (Chlorella vulgaris; 12 days, 5.0 PPM) was 304348 units/ml. For the same compound, the Algal units/ml (Chlorella vulgaris; 12 days, 10.0 PPM) was 195652 units/ml, the Algal units/ml (Anabaena flos-aquae; 5 days, 0.5 PPM) was 1087 units/ml and the “effect on algal growth” value (Anabaena flos-aquae; 5 days, 0.5 PPM) was “inhibition”. For the same compound, the Algal units/ml (Anabaena flos-aquae; 5 days, 1.0 PPM) was 3261 units/ml, the “effect on algal growth” value (Anabaena flos-aquae; 5 days, 1.0 PPM) was “stimulation” and the Algal units/ml (Anabaena flos-aquae; 5 days, 5.0 PPM) was 1087 units/ml. The Algal units/ml (Anabaena flos-aquae; 5 days, 10.0 PPM) was 217 units/ml, the Algal units/ml (Anabaena flos-aquae; 12 days, 0.5 PPM) was 14565 units/ml and the Algal units/ml (Anabaena flos-aquae; 12 days, 1.0 PPM) was 8261 units/ml. The Algal units/ml (Anabaena flos-aquae; 12 days, 5.0 PPM) was 4130 units/ml, the Algal units/ml (Anabaena flos-aquae; 12 days, 10.0 PPM) was 3969 units/ml and the “effect on algal growth” value (Anabaena flos-aquae; 12 days, all concentrations) was “inhibitory effect”. The inhibition of growth at 10 ppm (Anabaena flos-aquae; 5 days) was 90.9%, the Algal units/ml (Chlamydomonas sp.; 5 days, 0.5 PPM) was 11087 units/ml and the Algal units/ml (Chlamydomonas sp.; 5 days, 1.0 PPM) was 12609 units/ml. For the same compound, the Algal units/ml (Chlamydomonas sp.; 5 days, 5.0 PPM) was 12391 units/ml, the “reduction of number of algal units/ml vs control” value (Chlamydomonas sp.; 5 days) was 5,000 algal units/ml and the Algal units/ml (Chlamydomonas sp.; 5 days, 10.0 PPM) was 6522 units/ml. It also gave an Algal units/ml (Chlamydomonas sp.; 12 days, 0.5 PPM) of 45652 units/ml, an Algal units/ml (Chlamydomonas sp.; 12 days, 1.0 PPM) of 52174 units/ml and an Algal units/ml (Chlamydomonas sp.; 12 days, 5.0 PPM) of 50000 units/ml. For the same compound, the Algal units/ml (Chlamydomonas sp.; 12 days, 10.0 PPM) was 51087 units/ml and the inhibition of growth at 10 ppm (Chlamydomonas sp.; 5 days) was 43.4%.
